Where “and” joins values, the source holds several entries; their conditions need not be identical. Identical values can stand only once. Entries after “also recorded” stand apart in the source; their conditions may differ.
How the values were obtained:
[1] = test system: α-smooth muscle actin (a-SMA); assay: Anti-fibrosis efficacy: IHC of α-SMA in UUO kidney; assay type: in vivo, Balb/c mice; conditions: Day 14 post-UUO surgery
Protocol: (§1) Mouse kidney tissue—Two slides from each kidney were selected for each set of stains such that two section-containing slides were at least 200 μm away from each other. IHC staining was performed on paraffin sections using the microwave-based antigen retrieval technique^32. Tissue sections were deparaffinized and rehydrated to water. After placing the slides in citrate buffer (10 mM citric acid, pH 6.0), the slides were heated in the microwave oven for 3 min under high power (˜95-100° C.) and for 20 more min under low power. After cooling the slides in the heated solution for 30 min, they were rinsed in distilled water twice and in PBS for 5 min. Next, the slides were blocked with 2.5% normal horse serum (Vector Laboratories) for 2 h and incubated with 60 μL of primary antibodies [1 μg/mL for type I collagen (1310-01; Southern BioTech), 0.048 μg/mL for α-SMA (ab150301; Abcam)) 0.625 μg/mL for folate receptor (ab67422; Abcam), 1.25 μg/mL for CD3 (ab16669; Abcam), 1.25 μg/mL for Wnt5b (ab93134; Abcam), and pre-diluted β-catenin (ab15180; Abcam)] at 4° C. overnight. […]
(§2) The major measurable outcome was the expression level of collagen I, as quantified by the percentage area of IHC staining in the kidney sections. […]

UUO mice = assay: In vivo toxicity test (organ histology, blood biochemistry, hematology); set-up: species or system Balb/c mice; conditions: 7 days post-injection, efficacy dose
Protocol: Liver, heart, and spleen samples were fixed in 10% buffered formalin for 48 h and then stored in PBS at 4° C. Paraffin-embedded tissue sections of 4 μm thick were stained with hematoxylin and eosin for the tissue morphology by light microscopy. Blood, collected via an intracardiac puncture, was stored in a plain tube for biochemistry tests and in EDTA-coated tubes (Becton Dickinson) for hematology analysis. The blood samples were kept on ice and later sent to PathLab (Hong Kong) for analysis on the same day.

[2] = test system: UUO mice with established renal fibrosis; assay: Efficacy study in UUO mice: kidney degeneration (gross appearance, histology, kidney weight, blood creatinine); assay type: in vivo, Balb/c mice; conditions: treatment from Day 7, sacrifice Day 14 post-UUO surgery
Protocol: Mouse model of renal fibrosis was induced by the UUO surgery as previously described^12,29. Mice were anesthetized by an intraperitoneal injection of ketamine (100 mg/kg; Alfasan International B.V.) and xylazine (10 mg/kg; Alfasan International B.V.). The peritoneum was cut along the midline, and the left ureter was isolated and ligated twice by using a 5-0 suture (NingBo Cheng-He Microsurgical Instruments). The bowel was laid back and the peritoneum was closed with suture. The mice were placed under a heating lamp to maintain body temperature until they recovered from anesthesia. For analgesia, three injections of buprenorphine (Temgesic, 0.05 mg/kg) were given to the mice subcutaneously every 12 h after the surgery. To verify the development of fibrosis, the mice were sacrificed by cervical dislocation with anesthesia, and their kidneys were weighted (see FIG. 4) and processed for histological analysis (see FIGS. 5A-5C).
FA was dissolved in sterile BioPerformance Certified DMSO (Sigma) and formulated in D5W prior to injection. The final concentration of DMSO was less than 1%. Au3-PEG500-FA NPs formulated in D5W was injected i.v. at a dose of 0.12 mg-FA/kg-mouse (or equivalently 2.5 mg-Au/kg-mouse). […]
as §2

[3] = neutral conditions, literature ref 45; cited from earlier work
[4] = test system: type I collagen (gene ID: Col1a1); assay: Transcriptomic analysis (RNA-seq) of UUO kidneys; assay type: in vivo, Balb/c mice; conditions: UUO kidney, 48 h post-injection, individual replicates 1-3
Protocol: UUO mice were i.v. injected with Au3-PEG500-FA NPs (i.e., […]) or free (i.e., 0.12 mg-FA/kg-mouse) on Day 7 after UUO surgery, at the same dosage used for the efficacy studies. An untreated group of UUO mice was also included as control. On Day 9 after UUO surgery (i.e., 48 h post-injection), the mice were sacrificed and the UUO kidneys were harvested. After cutting the UUO kidneys in half using a scalpel, one set of the halved kidneys was fixed in buffered formalin while the other set was snap frozen in liquid nitrogen and stored at −80° C. The formalin-fixed samples were dehydrated as mentioned above and embedded in paraffin blocks to generate tissue sections for validating the RNA-seq data. The frozen samples were sent to Beijing Genomics Institute (BGI) for RNA extraction, RNA library construction, and bioinformatic analysis. A total of 9 samples were sequenced using the BGISEQ platform, with ˜4.57 Gb generated per sample. The average mapping ratio with reference genome is 94.33%. Differential expressed genes (DEGs) detection, gene ontology analysis of DEG, and other analysis based on gene expression were performed by BGI. Further analysis of the DEGs was performed by filtering the list of DEGs with a FPKM threshold of 2 for at least 6 out of the 9 UUO samples tested.
Animals were sacrificed on Day 9. […]

CD3+ T cells = assay: Anti-fibrosis efficacy: IHC of CD3+ T cell infiltration in UUO kidney; assay type: in vivo, Balb/c mice; conditions: Day 14 post-UUO surgery
Protocol: as §1, §2

type I collagen = assay: Anti-fibrosis efficacy: IHC of type I collagen in UUO kidney; assay type: in vivo, Balb/c mice; conditions: for fractional area of type I collagen in UUO kidney: Day 14 post-UUO surgery (7 days post injection)
Protocol: Mouse kidney tissue—Two slides from each kidney were selected for each set of stains such that two section-containing slides were at least 200 μm away from each other. IHC staining was performed on paraffin sections using the microwave-based antigen retrieval technique^32. Tissue sections were deparaffinized and rehydrated to water. After placing the slides in citrate buffer (10 mM citric acid, pH 6.0), the slides were heated in the microwave oven for 3 min under high power (˜95-100° C.) and for 20 more min under low power. After cooling the slides in the heated solution for 30 min, they were rinsed in distilled water twice and in PBS for 5 min. Next, the slides were blocked with 2.5% normal horse serum (Vector Laboratories) for 2 h and incubated with 60 μL of primary antibodies [1 μg/mL for type I collagen (1310-01; Southern BioTech), 0.048 μg/mL for α-SMA (ab150301; Abcam)) 0.625 μg/mL for folate receptor (ab67422; Abcam), 1.25 μg/mL for CD3 (ab16669; Abcam), 1.25 μg/mL for Wnt5b (ab93134; Abcam), and pre-diluted β-catenin (ab15180; Abcam)] at 4° C. overnight. Slides were then washed in PBS and treated with 3% H2O2 (Merck Millipore) for 30 min, rinsed again, and incubated with ˜50 μL of secondary antibodies (ImmPRESS HRP Polymer detection Kit, Vector Laboratories) for 30 min. The sections were developed sequentially by using 3,3′-diaminobenzidine (DAB) enzyme substrate (ImmPACT™ DAB, Vector Laboratories) for 2 min. All slides were counter-stained with Mayer's hematoxylin for 3 min, washed in distilled water, dried in 90% ethanol, and mounted by using xylene-based mounting medium. Bright-field images were acquired using the Nikon Eclipse Ni (DS-Ri2) microscope.
FA was dissolved in sterile BioPerformance Certified DMSO (Sigma) and formulated in D5W prior to injection. The final concentration of DMSO was less than 1%. […]
as §2

| Compound | area with positive α-SMA in the UUO kidney [1] [%] | histological examination of liver, heart, and spleen (UUO mice) | gross tissue degeneration of UUO kidney [2] | solubility in water [3] | Expression level (FPKM) for type I collagen [4] | mean population of CD3+ T cells (CD3+ T cells) [cells/frame] | type I collagen protein expression in UUO kidney versus saline group (type I collagen; 48 h post-injection (Day 9)) | fractional area of type I collagen in UUO kidney (type I collagen) [%] |
| --- | --- | --- | --- | --- | --- | --- | --- | --- |
| Nc1nc2ncc(CNc3ccc(C(=O)N[C@@H](CCC(=O)O)C(=O)O)cc3)nc2c(=O)[nH]1 [free FA, folic acid] | 10.7 | did not observe noticeable toxicity | rescued the UUO kidney from tissue degeneration; also recorded: did not degenerate | poorly soluble in water | 185.4 FPKM and 80.71 FPKM and 18.57 FPKM | 13 | lower type I collagen protein expression than the saline group | 11.2 |
| C[C@H](CS)C(=O)N1CCC[C@H]1C(=O)O [Captopril] | 12.5 | did not observe noticeable toxicity |  |  |  |  |  | 13.5 |
